From patent US11701370B2, “Phosphonium ion channel blockers and methods for use” (Nocion Therapeutics, Inc., priority 2019, dated 2023)
Structures can show the parent of a compound that is named as a salt.

Columns and labels:
[1] = PAMPA membrane permeability assay (artificial lipid membrane, passive diffusion); format: in vitro ADME; conditions: pH 7.4 buffer, GIT lipid, 4 hours incubation
Method: The PAMPA assay (pION, Inc., Woburn Mass.) was used to determine the ability of compounds of the invention to cross an artificial lipid membrane by passive diffusion. Test compounds were dissolved in DMSO (10 mM) and diluted 200-fold in buffer (pION Inc., pH 7.4) to provide 50 uM stock solutions. Buffer (150 μL) was added to a UV blank plate and stock solutions (150 μL) were transferred to a UV reference plate. The blank and reference spectrum were read using a spectrophotometer. Stock solutions (200 μL) were added to the donor plate of the PAMPA sandwich plate and an accept plate painted with GIT lipid (pION Inc, 5 μL) was placed on top. Buffer (200 μL) was added to the acceptor plate and the PAMPA sandwich plate was incubated for 4 hours. Aliquots (150 μL) from the acceptor plate were added to a UV plate and read as acceptor spectrum. Aliquots (150 μL) of the donor solutions were added to a UV analysis plate and read as donor spectrum. The permeability coefficient of test compounds was calculated using PAMPA Explorer™ software (version 3.5.0.4) based on the AUC of the reference plate, the donor plate, and the acceptor plate.
The PAMPA permeability results (10^−6 cm/s) of representative compounds are reported as “+” (<0.1 10^−6 cm/s), “++” (0.1-2.0 10^−6 cm/s), “+++” (2.0-10.010^−6 cm/s) or “++++” (>10.0 10^−6 cm/s).

[2] = molecular target: T1, NaV1.7 (Homo sapiens, UniProt Q15858); experiment: Internal block: intracellular inhibition of NaV1.7 current, whole cell patch clamp; format: cell-based; conditions: compound in internal solution; for inhibition at 10 µM: 10 μM test concentration; for inhibition at 3 µM: 3 μM test concentration
T1 construct: expressed in transfected cells; tetracycline-inducible, kept under hygromycin and blasticidin selection
Method: (§1) NaV1.7 was expressed upon induction with tetracycline. Cells were cultured in DMEM containing 10% dialyzed Fetal Bovine Serum (VWR, Radnor, Pa.), 1% Glutamax (VWR, Radnor, Pa.), 1% Penicillin-Streptomycin (VWR, Radnor, Pa.), 100 mg/L Hygromycin (Thermo Fisher Scientific, Waltham, Mass. and 5 mg/L Blasticidin (Alfa Aesar, Haverhill, Mass.). Cells were grown and maintained at 37° C. in a humidified environment containing 10% CO2 in air. Cells were detached from the culture flask for passage and harvested using 0.05% Trypsin-EDTA (Thermo Fisher Scientific, Waltham, Mass.). To induce NaV1.7, cells were induced with tetracycline (0.1-1 μg/mL, IBI Scientific, Peosta, Iowa) the day before recording and plated onto 24-well plates. Cells were washed with DPBS (VWR, Radnor, Pa.), trypsinized and then triturated five times in 10 mL of growth media to break apart cell aggregates. For one 24-well plate, 2 mL of cell suspension was mixed with 23 mL of fresh growth media and 0.1-1 μg/mL tetracycline added. 1 ml of mixed media with cells was then added to each well of a 24-well plate, with a 12 mm coverslip already placed in the bottom of the well. Cells were then incubated in 37° C. and 10% CO2 overnight.
(§2) The intracellular solution contained the following (in mM) CsCl 135, NaCl 10, EGTA 10, HEPES 10, MgCl22, adjusted to pH 7.2 with CsOH. The external solution was a normal Ringer solution containing (in mM) NaCl 155, HEPES 10, glucose 10, KCl 3.5, CaCl2 1.5, MgCl2 1 adjusted to pH 7.4 with NaOH. CsCl is from Alfa Aesar, Haverhill, Mass. All other chemicals are from Sigma-Aldrich, St. Louis, Mo. In order to test the degree of internal block by test compounds the compounds were dissolved in internal solution at the indicated test concentration. […] In order to test the degree of external block by test compounds the compounds were dissolved in external solution at the indicated test concentration.
(§3) 18-24 hours after cells were induced with tetracycline, coverslips were placed into a chamber filled with Normal Ringer solution at room temperature and the chamber placed on a microscope. Pipettes were pulled from borosilicate glass on a P97 puller (Sutter Instrument, Novato, Calif.) and polished with a MF-830 Microforge (Narishige International USA, Inc, Amityville, N.Y.) to have a resistance of 1.5-2.5 MΩ when filled with CsCl internal solution at room temperature. Healthy cells (those that are round and translucent with no visible blemishes) were chosen for seal formation. A seal was formed between the pipette and the cell, and a brief pulse of suction was used to “break in” and establish the whole-cell configuration. The membrane potential was held at −100 mV before the voltage protocol began. Only cells with series resistance between 1.5-5 MΩ were retained for analysis. The voltage protocol was as follows: Cells were held at −100 mV for 12 ms followed by a hyperpolarizing step to −105 mV for 12 ms to monitor the leak. Cells were then stepped back to −100 mV for 40 ms. Cells were then depolarized to −20 mV for 10 ms and then returned to −100 mV for 26 ms (FIG. 1).
(§4) Once the recording was started, the voltage protocol was run at 30 second intervals for 5 minutes to get a stable baseline. This was followed by four 30-second periods of 5 Hz stimulation of the same voltage protocol separated by 1 minute of rest which was then followed by 0.33 Hz stimulation after the last train. Currents were recorded using PatchMaster software with Heka EPC10 (HEKA Electronics, Lambrecht, Germany). Only cells with inward current amplitudes at −20 mV between 400 pA and 4 nA were accepted. In addition, cells having leak currents greater than 10% of their current amplitudes were discarded.
(§5) The data was plotted using the Patchmaster software (HEKA Electronics, Lambrecht, Germany) and analyzed by plotting the minimum current during the voltage step to −20 mV (peak inward current) as a function of time. […]

[3] = molecular target: T1, NaV1.7; experiment: External block: extracellular inhibition of NaV1.7 current, whole cell patch clamp; format: cell-based; conditions: compound in external solution; for inhibition at 10 µM: 10 μM test concentration; for inhibition at 3 µM: 3 μM test concentration
Method: as §1, §2, §3
as §4, with “This is” for “This was”, “by” for “by four 30-second periods of”, “protocol run until the end” for “protocol separated by 1 minute”, “of experiment. […] The test compound is added for 5 minutes before washing out with normal Ringer's solution.” for “of rest which was then followed by 0.33 Hz stimulation after the last train.”
as §5

T1 sequence (Q15858 whole entry): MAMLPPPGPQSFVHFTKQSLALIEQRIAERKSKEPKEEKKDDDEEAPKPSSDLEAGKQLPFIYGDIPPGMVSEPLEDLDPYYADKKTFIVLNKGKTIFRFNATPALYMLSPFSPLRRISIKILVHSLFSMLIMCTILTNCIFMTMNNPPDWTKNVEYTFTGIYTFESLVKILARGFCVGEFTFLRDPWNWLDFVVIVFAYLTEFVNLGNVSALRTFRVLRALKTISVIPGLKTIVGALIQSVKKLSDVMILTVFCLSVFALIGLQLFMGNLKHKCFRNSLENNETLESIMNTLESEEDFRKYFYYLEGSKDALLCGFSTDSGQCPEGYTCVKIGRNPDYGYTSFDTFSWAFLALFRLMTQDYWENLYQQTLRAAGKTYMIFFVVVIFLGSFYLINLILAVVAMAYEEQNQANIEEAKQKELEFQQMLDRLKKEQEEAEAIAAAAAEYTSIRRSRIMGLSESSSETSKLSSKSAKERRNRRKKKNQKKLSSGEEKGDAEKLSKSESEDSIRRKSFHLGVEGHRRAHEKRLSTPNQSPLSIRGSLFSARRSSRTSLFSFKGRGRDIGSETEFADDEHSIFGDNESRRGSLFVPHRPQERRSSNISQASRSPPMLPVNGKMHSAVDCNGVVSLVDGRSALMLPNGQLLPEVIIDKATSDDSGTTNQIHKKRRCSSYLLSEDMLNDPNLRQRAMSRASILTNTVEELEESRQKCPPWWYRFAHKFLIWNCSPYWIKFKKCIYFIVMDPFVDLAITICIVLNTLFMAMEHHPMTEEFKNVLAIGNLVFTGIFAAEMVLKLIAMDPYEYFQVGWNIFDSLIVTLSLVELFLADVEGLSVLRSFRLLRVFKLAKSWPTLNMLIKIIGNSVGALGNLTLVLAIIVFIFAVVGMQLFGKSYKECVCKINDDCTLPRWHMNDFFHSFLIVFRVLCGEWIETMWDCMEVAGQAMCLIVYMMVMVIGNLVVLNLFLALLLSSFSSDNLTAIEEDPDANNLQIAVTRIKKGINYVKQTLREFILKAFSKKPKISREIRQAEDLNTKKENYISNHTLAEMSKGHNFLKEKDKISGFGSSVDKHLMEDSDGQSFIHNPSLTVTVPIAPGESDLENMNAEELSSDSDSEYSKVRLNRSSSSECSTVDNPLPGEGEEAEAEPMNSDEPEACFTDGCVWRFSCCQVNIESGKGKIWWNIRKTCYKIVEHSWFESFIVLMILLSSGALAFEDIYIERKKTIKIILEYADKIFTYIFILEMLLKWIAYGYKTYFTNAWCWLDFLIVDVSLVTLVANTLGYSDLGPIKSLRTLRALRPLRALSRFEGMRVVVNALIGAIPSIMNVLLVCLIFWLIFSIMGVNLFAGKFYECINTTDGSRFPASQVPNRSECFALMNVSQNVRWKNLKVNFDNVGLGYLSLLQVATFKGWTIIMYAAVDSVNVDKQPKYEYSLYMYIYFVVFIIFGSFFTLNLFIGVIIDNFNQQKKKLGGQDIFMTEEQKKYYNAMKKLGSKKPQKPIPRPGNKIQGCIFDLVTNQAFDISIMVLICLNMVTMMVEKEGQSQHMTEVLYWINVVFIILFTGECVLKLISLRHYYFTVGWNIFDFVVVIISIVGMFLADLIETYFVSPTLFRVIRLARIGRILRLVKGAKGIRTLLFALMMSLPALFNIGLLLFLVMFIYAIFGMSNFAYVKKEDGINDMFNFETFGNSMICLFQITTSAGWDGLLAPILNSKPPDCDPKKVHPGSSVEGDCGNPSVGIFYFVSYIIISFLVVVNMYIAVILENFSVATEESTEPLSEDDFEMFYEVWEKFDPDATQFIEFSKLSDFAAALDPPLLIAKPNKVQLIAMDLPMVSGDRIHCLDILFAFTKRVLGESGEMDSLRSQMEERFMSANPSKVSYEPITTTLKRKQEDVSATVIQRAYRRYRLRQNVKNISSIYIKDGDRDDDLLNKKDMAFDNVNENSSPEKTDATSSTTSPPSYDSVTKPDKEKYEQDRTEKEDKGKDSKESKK

Compound	Papp at 4 h, 50 uM [1] [×10⁻⁶ cm/s]	inhibition at 10 µM [2] [%]	inhibition at 1000 µM ([3]; 1,000 μM test concentration) [%]	inhibition at 10 µM [3] [%]	inhibition at 3 µM [3] [%]	inhibition at 3 µM [2] [%]
CC[P+](CC)(CC)CC(=O)Nc1c(C)cccc1C [Compound 1, (2-((2,6-dimethylphenyl)amino)-2-oxoethyl) triethylphosphonium bromide]	< 0.1	70 to 95	< 40	–	–	–
CCC(C(=O)Nc1c(C)cccc1C)[P+](CC)(CC)CC (centres unmarked) [Compound 2, (1-((2,6-dimethylphenyl)amino)-1-oxobutan-2-yl) triethylphosphonium carbonate]	> 10	40 to 70	–	–	–	–
Cc1cccc(C)c1NC(=O)C[P+]1(Cc2ccccc2)CCCCCC1 [Compound 3, 1-benzyl-1-(2-((2,6-dimethylphenyl)amino)-2-oxoethyl) phosphepan-1-ium bromide]	< 0.1	> 95	–	40 to 70	–	–
Cc1cccc(C)c1NC(=O)C[P+]1(Cc2ccccc2)CCCCC1.[Br-] [Compound 4, 1-benzyl-1-(2-((2,6-dimethylphenyl)amino)-2-oxoethyl) phosphinan-1-ium bromide]	0.1 to 2	> 95	–	40 to 70	–	–
Cc1cccc(C)c1NC(=O)C[P+]1(Cc2ccccc2)CCCC1 [Compound 5, 1-benzyl-1-(2-((2,6-dimethylphenyl)amino)-2-oxoethyl) phospholan-1-ium bromide]	0.1 to 2	70 to 95	–	< 40	–	–
CC[P+](CC)(CC(=O)Nc1c(C)cccc1C)CC(=O)Nc1c(C)cccc1C [Compound 6, bis (2-((2,6-dimethylphenyl)amino)-2-oxoethyl) diethyl phosphonium acetate]	< 0.1	70 to 95	–	–	–	–
CCCC[P+](CCCC)(CCCC)CC(=O)Nc1c(C)cccc1C.[Br-] [Compound 7, tri-n-butyl (2-((2,6-dimethylphenyl)amino)-2-oxoethyl) phosphonium bromide]	2 to 10	> 95	–	–	–	–
Cc1cccc(C)c1NC(=O)C[P+](c1ccccc1)(c1ccccc1)c1ccccc1.O=C[O-] [Compound 8, (2-((2,6-dimethylphenyl)amino)-2-oxoethyl) triphenylphosphonium formate]	< 0.1	> 95	–	–	40 to 70	–
CCC(C(=O)Nc1c(C)cccc1C)[P+](c1ccccc1)(c1ccccc1)c1ccccc1 (centres unmarked) [Compound 9, (1-((2,6-dimethylphenyl)amino)-1-oxobutan-2-yl) triphenylphosphonium formate]	2 to 10	> 95	–	–	–	–
CCC(C(=O)Nc1c(C)cccc1C)[P+]1(Cc2ccccc2)CCCCC1 (centres unmarked) [Compound 10, 1-benzyl-1-(1-((2,6-dimethylphenyl)amino)-1-oxobutan-2-yl)phosphinan-1-ium formate]	< 0.1	> 95	–	–	40 to 70	–
CCC(C(=O)Nc1c(C)cccc1C(=O)OC)[P+]1(Cc2ccccc2)CCCCC1 (centres unmarked) [Compound 11]	< 0.1	–	–	–	–	70 to 90
CCC(C(=O)Nc1c(C#N)cccc1C(=O)OC)[P+]1(Cc2ccccc2)CCCCC1 (centres unmarked) [Compound 12]	–	–	–	–	–	70 to 90
CCOC(=O)c1cccc(C)c1NC(=O)C[P+]1(Cc2ccccc2)CCCCC1 [Compound 13]	< 0.1	–	–	–	40 to 70	> 90
Cc1cccc(C(=O)OC(C)(C)C)c1NC(=O)C[P+]1(Cc2ccccc2)CCCCC1 [Compound 14]	< 0.1	–	–	–	–	40 to 70
CCOC(=O)c1cccc(F)c1NC(=O)C[P+]1(Cc2ccccc2)CCCCC1 [Compound 15]	< 0.1	–	–	–	< 40	70 to 90
COC(=O)c1cccc(C)c1NC(=O)C[P+]1(Cc2ccccc2)CCCCC1 [Compound 16]	–	–	–	–	–	70 to 90
CCOC(=O)c1cccc(Cl)c1NC(=O)C[P+]1(Cc2ccccc2)CCCCC1 [Compound 17]	> 10	–	–	–	40 to 70	> 90
CCOC(=O)c1cccc(CC)c1NC(=O)C[P+]1(Cc2ccccc2)CCCCC1 [Compound 19]	< 0.1	–	–	40 to 70	–	70 to 90
CCOC(=O)c1cccc(OCC)c1NC(=O)C[P+]1(Cc2ccccc2)CCCCC1 [Compound 20]	< 0.1	–	–	–	< 40	> 90
CC[P+](CC)(CC)CC(=O)Nc1c(C)cccc1C(=O)OC.[Br-] [Compound 21]	< 0.1	–	–	–	–	< 40
CCCC[P+](CCCC)(CCCC)CC(=O)Nc1c(C)cccc1C(=O)OC.[Br-] [Compound 22]	< 0.1	–	–	–	–	70 to 90
COC(=O)c1cccc(C)c1NC(=O)C[P+](c1ccccc1)(c1ccccc1)c1ccccc1 [Compound 23]	< 0.1	–	–	–	–	< 40
